Values of other authors, collected in US20160317610A1, “COMPOSITIONS AND METHODS FOR TREATING OVARIAN CANCER INCLUDING PREVENTING THE […]” (University of Southern California, priority 2013, published 2016).

Test system: advanced OC

In the case of CC(C)[C@H]1C(=O)N[C@@H](CCCN=C(N)N)C(=O)NCC(=O)N[C@@H](CC(=O)O)C(=O)N[C@H](Cc2ccccc2)C(=O)N1C [Cilengitide, cyclo(L-Arg-Gly-L-Asp-D-Phe-N-methyl-L-Val)], the clinical efficacy is given as “failed to show clinical efficacy”.
